Measurements: patent US20220133761A1, “NEUTROPHIL APOPTOSIS INDUCED BY NANOPARTICLES FOR TREATING INFLAMMATORY DISEASES” (WASHINGTON STATE UNIVERSITY, priority 2020, published 2022)

Columns and labels:
[1] = test system: differentiated HL-60 cells; assay: Apoptosis analysis, Annexin V-FITC / 7AAD staining (flow cytometry, CLSM); assay type: cell-based, human
Experimental: To investigate the apoptosis of neutrophils induced by DOX, Annexin V-FITC and 7AAD were used to double stain differentiated HL-60 cells. […] The cells were re-suspended in a binding buffer for staining of Annexin V-FITC and 7AAD (emission at 650 nm) according to the manufacturer's protocol (Invitrogen). Stained cells were analyzed using a flow cytometer and imaged by a Nikon A1R^+ confocal laser scanning microscope.

LPS-challenged mice = assay: Second LPS hit (i.t.) in mice that survived sepsis after NP treatment
Experimental: The mice were challenged with LPS (i.p., 50 mg/kg) or PBS (control). 4 h later, the LPS-challenged mice were i.v. treated with DOX-hyd-BSA NPs at 0.2 mg/kg of DOX. The control mice were not treated with LPS and NPs. 72 h later, all survival and control (healthy) mice were challenged with LPS (i.t., 10 mg/kg).
The combinatory experiments were designed in which a mouse was i.p. challenged with LPS to cause sepsis, and then a mouse was treated with DOX-loaded NPs 4 h after the LPS challenge. At 72 h after the LPS challenge, the survival mouse was i.t. administered to examine whether neutrophils can transmigrate and respond to the second hit of LPS (see FIG. 10M of experimental protocol diagram).

Substance: DOX-hyd-BSA NPs
- apoptotic cells by flow cytometry ([1]; 24 h, DOX 3 μg/mL): 89%
- Annexin V-FITC / 7AAD staining by confocal microscopy ([1]; 24 h treatment): contained staining of Annexin-V-FITC, and less staining of 7AAD
- body weight of mice that survived sepsis (LPS-challenged mice; 0.2 mg (DOX)/kg dose): returned to their initial weight
- response of neutrophils to second LPS challenge (BALF neutrophils, cytokines) (LPS-challenged mice; i.t. LPS 10 mg/kg at 72 h, BALF at 84 h, vs healthy mice): can immediately respond to the challenge of LPS like what the healthy mice did
